Results taken from patent publication US20190367516A1 (Bayer Pharma Aktiengesellschaft, priority 2015, published 2019).
pEC50: −log10 of the molar value. Where two headings read alike, the source gives them in different places.

Target: T1, human M2 receptor (Homo sapiens, UniProt P08172)
T1 sequence (P08172 1-466): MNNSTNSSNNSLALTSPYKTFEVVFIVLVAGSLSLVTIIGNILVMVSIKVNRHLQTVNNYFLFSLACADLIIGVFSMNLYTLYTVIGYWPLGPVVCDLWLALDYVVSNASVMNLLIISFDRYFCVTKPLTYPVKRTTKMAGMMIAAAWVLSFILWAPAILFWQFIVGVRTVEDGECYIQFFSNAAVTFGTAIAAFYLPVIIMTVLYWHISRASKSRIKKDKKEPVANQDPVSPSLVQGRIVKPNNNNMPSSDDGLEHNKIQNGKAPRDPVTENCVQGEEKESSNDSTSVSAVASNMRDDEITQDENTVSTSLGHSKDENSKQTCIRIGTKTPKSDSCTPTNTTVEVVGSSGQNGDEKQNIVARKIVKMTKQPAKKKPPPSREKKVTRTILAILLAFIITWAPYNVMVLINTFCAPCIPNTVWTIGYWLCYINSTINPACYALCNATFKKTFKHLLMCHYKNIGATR
Conditions: for Emax: read-out: Efficiency, boosting of the acetylcholine effect at EC20 acetylcholine concentration

[1] = Receptor activity EC50, allosteric potency at EC20 acetylcholine, M2-GIRK1/4 reporter cells, in some cases mean of two or more determinations
[2] = Receptor activity EC50, M2-GIRK1/4 activation test, acetylcholine at EC20, allosteric potency, in some cases mean values from two or more determinations

Compound | pEC50 [1] | Emax (M2-GIRK1/4 reporter cells) [%] | pEC50 [2] | Efficiency (boosting of the acetylcholine effect at EC20 acetylcholine concentration, M2-GIRK1/4 reporter cells) [%]
CC(C)C(NC(=O)c1cn(-c2c(F)cc(F)cc2F)c2nc(N3C[C@@H](O)CC3=O)ccc2c1=O)C(F)(F)F (mixture of isomers) [Example 526, 7-[(4S)-4-Hydroxy-2-oxopyrrolidin-1-yl]-4-oxo-N-[1,1,1-trifluoro-3-methylbutan-2-yl]-1-(2,4,6-trifluorophenyl)-1,4-dihydro-1,8-naphthyridine-3-carboxamide] | 8.05 | 100 |  | 
O=C(Nc1c(Cl)cccc1Cl)c1cn(-c2c(F)cc(F)cc2F)c2nc(N3C[C@@H](O)CC3=O)ccc2c1=O [Example 592, N-(2,6-Dichlorophenyl)-7-[(4S)-4-hydroxy-2-oxopyrrolidin-1-yl]-4-oxo-1-(2,4,6-trifluorophenyl)-1,4-dihydro-1,8-naphthyridine-3-carboxamide] | 7.80 | 99.5 |  | 
CC(C)C[C@H](NC(=O)c1cn(-c2ccc(F)cc2F)c2nc(N(C)C)ccc2c1=O)C(F)(F)F [Example 137, 1-(2,4-Difluorophenyl)-7-(dimethylamino)-4-oxo-N-[(2S)-1,1,1-trifluoro-4-methylpentan-2-yl]-1,4-dihydro-1,8-naphthyridine-3-carboxamide] |  |  | 7.80 | 
C[C@H](NC(=O)c1cn(-c2c(F)cc(F)cc2F)c2nc(N3CC4CC4(O)C3)ccc2c1=O)C(F)(F)F (mixture of isomers) [Example 316, 7-[1-Hydroxy-3-azabicyclo[3.1.0]hex-3-yl]-4-oxo-1-(2,4,6-trifluorophenyl)-N-[(2S)-1,1,1-trifluoropropan-2-yl]-1,4-dihydro-1,8-naphthyridine-3-carboxamide] |  |  | 7.55 | 
O=C(NC12CC3CC(CC(C3)C1)C2)c1cn(-c2ccc(F)cc2F)c2nc(NCCO)ccc2c1=O [Example 79, 1-(2,4-Difluorophenyl)-7-[(2-hydroxyethyl)amino]-4-oxo-N-(tricyclo[3.3.1.1^3,7]dec-1-yl)-1,4-dihydro-1,8-naphthyridine-3-carboxamide] |  |  | 6.84 | 
O=C(NC1(CC(F)(F)F)CC1)c1cn(-c2c(F)cc(F)cc2F)c2nc(N3C[C@@H](O)[C@H](O)C3)ccc2c1=O [Example 635, 7-[(3R,4R)-3,4-Dihydroxypyrrolidin-1-yl]-4-oxo-N-[1-(2,2,2-trifluoroethyl)cyclopropyl]-1-(2,4,6-trifluorophenyl)-1,4-dihydro-1,8-naphthyridine-3-carboxamide] | 7.23 | 100 |  | 
CCC(NC(=O)c1cn(-c2ccc(F)cc2F)c2nc(N3C[C@@H](O)CC3=O)ccc2c1=O)C(F)(F)C(F)(F)F (mixture of isomers) [Example 556, 1-(2,4-Difluorophenyl)-7-[(4S)-4-hydroxy-2-oxopyrrolidin-1-yl]-4-oxo-N-[1,1,1,2,2-pentafluoropentan-3-yl]-1,4-dihydro-1,8-naphthyridine-3-carboxamide] | 8.00 | 100 |  | 
CN(C)c1ccc2c(=O)c(C(=O)NC(C)(C)C)cn(-c3ccc(F)cc3F)c2n1 [Example 43, N-tery-Butyl-1-(2,4-difluorophenyl)-7-(dimethylamino)-4-oxo-1,4-dihydro-1,8-naphthyridine-3-carboxamide] |  |  | 6.85 | 
CC[C@H](NC(=O)c1cn(-c2c(F)cccc2Cl)c2nc(N3C[C@@H](O)[C@H](O)C3)ccc2c1=O)C(F)(F)F [Example 346, 1-(2-Chloro-6-fluorophenyl)-7-[(3R,4R)-3,4-dihydroxypyrrolidin-1-yl]-4-oxo-N-[(2S)-1,1-trifluorobutan-2-yl]-1,4-dihydro-1,8-naphthyridine-3-carboxamide] |  |  | 7.30 | 
O=C(NC12CC(C1)C2)c1cn(-c2c(F)cc(F)cc2F)c2nc(N3CC(O)C4(CC4)C3)ccc2c1=O (single isomer, unassigned) [Example 628, N-(Bicyclo[1.1.1]pent-1-yl)-7-[7-hydroxy-5-azaspiro[2.4]hept-5-yl]-4-oxo-1-(2,4,6-trifluorophenyl)-1,4-dihydro-1,8-naphthyridine-3-carboxamide] | 7.49 |  |  | 
O=C(N[C@@H](C1CC1)C(F)(F)F)c1cn(-c2c(F)cc(F)cc2F)c2nc(N3CCOC(CO)C3)ccc2c1=O (single isomer, unassigned) [Example 464, N-[(1 S)-1-Cyclopropyl-2,2,2-trifluoroethyl]-7-[2-(hydroxymethyl)morpholin-4-yl]-4-oxo-1-(2,4,6-trifluorophenyl)-1,4-dihydro-1,8-naphthyridine-3-carboxamide] | 6.89 | 82.5 |  | 
O=C(N[C@H](C1CC1)C(F)(F)F)c1cn(-c2c(F)cc(F)cc2F)c2nc(N3CC4CC4(O)C3)ccc2c1=O (stereo partly drawn) [Example 405, N-[(1R)-1-Cyclopropyl-2,2,2-trifluoroethyl]-7-[1-hydroxy-3-azabicyclo[3.1.0]hex-3-yl]-4-oxo-1-(2,4,6-trifluorophenyl)-1,4-dihydro-1,8-naphthyridine-3-carboxamide] | 8.10 | 95.5 |  | 
CC[C@@H](NC(=O)c1cn(-c2ccc(F)cc2F)c2nc(N3C(=O)CCC3C)ccc2c1=O)C(F)(F)F (single isomer, unassigned) [Example 427] | 7.72 | 91.5 |  | 
CCC1CCN(c2ccc3c(=O)c(C(=O)N[C@@H](C4CC4)C(F)(F)F)cn(-c4c(F)cc(F)cc4F)c3n2)C(=O)N1 (single isomer, unassigned) [Example 447, N-[(1 S)-1-Cyclopropyl-2,2,2-trifluoroethyl]-7-[4-ethyl-2-oxotetrahydropyrimidin-1(2H)-yl]-4-oxo-1-(2,4,6-trifluorophenyl)-1,4-dihydro-1,8-naphthyridine-3-carboxamide] | 7.62 | 93 |  | 
O=C(NC(C(F)(F)F)C(F)(F)F)c1cn(-c2ccc(F)cc2F)c2nc(NCC(F)F)ccc2c1=O [Example 126, 7-[(2,2-Difluoroethyl)amino]-1-(2,4-difluorophenyl)-N-(1,1,1,3,3,3-hexafluoropropan-2-yl)-4-oxo-1,4-dihydro-1,8-naphthyridine-3-carboxamide] |  |  | 6.74 | 
O=C(N[C@H](c1ccccc1Cl)C(F)(F)F)c1cn(-c2ccc(F)cc2F)c2nc(N3CCCC(O)C3=O)ccc2c1=O (single isomer, unassigned) [Example 210] |  |  | 6.55 | 
O=C(NC12CC(F)(C1)C2)c1cn(-c2c(F)cc(F)cc2Cl)c2nc(N3C[C@@H](O)[C@H](O)C3)ccc2c1=O [Example 401, 1-(2-Chloro-4,6-difluorophenyl)-7-[(3R,4R)-3,4-dihydroxypyrrolidin-1-yl]-N-(3-fluorobicyclo[1.1.1]pent-1-yl)-4-oxo-1,4-dihydro-1,8-naphthyridine-3-carboxamide] | 7.39 | 95.5 |  | 
O=C(NC(c1ccccc1Cl)C(F)(F)F)c1cn(-c2ccccc2F)c2nc(N3CCC(O)C3=O)ccc2c1=O (single isomer, unassigned) [Example 291] |  |  | 6.17 | 
CC(C)(CC(F)(F)F)NC(=O)c1cn(-c2c(F)cc(F)cc2F)c2nc(N3CC(O)C4(CC4)C3)ccc2c1=O (single isomer, unassigned) [Example 571, 7-[7-Hydroxy-5-azaspiro[2.4]hept-5-yl]-4-oxo-N-(4,4,4-trifluoro-2-methylbutan-2-yl)-1-(2,4,6-trifluorophenyl)-1,4-dihydro-1,8-naphthyridine-3-carboxamide] | 7.92 |  |  | 
CC[C@H](NC(=O)c1cn(-c2c(F)cc(F)cc2F)c2nc(N3CCNC3=O)ccc2c1=O)C(F)(F)F [Example 343, 4-Oxo-7-(2-oxoimidazolidin-1-yl)-N-[(2S)-1,1,1-trifluorobutan-2-yl]-1-(2,4,6-trifluorophenyl)-1,4-dihydro-1,8-naphthyridine-3-carboxamide] |  |  | 7.60 | 
CO[C@@H]1CN(c2ccc3c(=O)c(C(=O)N[C@@H](C4CC4)C(F)(F)F)cn(-c4c(F)cc(F)cc4F)c3n2)C[C@H]1O (single isomer, unassigned) [Example 584, N-[(1 S)-1-Cyclopropyl-2,2,2-trifluoroethyl]-7-[trans-3-hydroxy-4-methoxypyrrolidin-1-yl]-4-oxo-1-(2,4,6-trifluorophenyl)-1,4-dihydro-1,8-naphthyridine-3-carboxamide] | 7.80 |  |  | 98.0
O=C(NC12CC3CC(CC(F)(C3)C1)C2)c1cn(-c2ccc(F)cc2F)c2nc(NCC(F)(F)F)ccc2c1=O [Example 91, 1-(2,4-Difluorophenyl)-N-(3-fluorotricyclo[3.3.1.1^3,7]dec-1-yl)-4-oxo-7-[(2,2,2-trifluoroethyl)amino]-1,4-dihydro-1,8-naphthyridine-3-carboxamide] |  |  | 7.24 | 
CC(NC(=O)c1cn(-c2ccc(F)cc2F)c2nc(N(C)CC(F)(F)F)ccc2c1=O)C(F)(F)F (racemic) [Example 99, rac-1-(2,4-Difluorophenyl)-7-[methyl(2,2,2-trifluoroethyl)amino]-4-oxo-N-[1,1,1-trifluoropropan-2-yl]-1,4-dihydro-1,8-naphthyridine-3-carboxamide] |  |  | 6.74 | 
O=C(NC(C(F)(F)F)C(F)(F)F)c1cn(-c2c(F)cc(F)cc2F)c2nc(N3CCNC3=O)ccc2c1=O [Example 599, N-(1,1,1,3,3,3-Hexafluoropropan-2-yl)-4-oxo-7-(2-oxoimidazolidin-1-yl)-1-(2,4,6-trifluorophenyl)-1,4-dihydro-1,8-naphthyridine-3-carboxamide] | 7.64 | 90 |  | 
